The results in this text go back to patent EP3381898A1, “SYMMETRICAL TRIS-ARYL-AMIDE DERIVATIVES AND THEIR USE AS ANTI-HEPARANASE” (priority 2017, dated 2018).

For assay [1], the target named is T1, heparanase (Homo sapiens, UniProt Q9Y251).
T1 sequence (Q9Y251 158-543 limits assumed): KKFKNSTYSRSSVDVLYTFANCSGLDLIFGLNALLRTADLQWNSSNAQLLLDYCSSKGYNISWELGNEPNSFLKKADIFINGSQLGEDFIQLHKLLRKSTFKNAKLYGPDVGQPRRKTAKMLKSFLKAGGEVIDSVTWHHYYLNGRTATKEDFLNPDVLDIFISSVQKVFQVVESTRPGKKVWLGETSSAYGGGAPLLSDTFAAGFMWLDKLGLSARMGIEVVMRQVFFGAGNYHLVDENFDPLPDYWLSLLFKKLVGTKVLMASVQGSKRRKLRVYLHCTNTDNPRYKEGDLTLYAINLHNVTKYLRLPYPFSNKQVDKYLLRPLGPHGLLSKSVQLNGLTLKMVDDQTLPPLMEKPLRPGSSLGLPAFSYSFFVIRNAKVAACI
T1 sequence (Q9Y251 36-109 limits assumed): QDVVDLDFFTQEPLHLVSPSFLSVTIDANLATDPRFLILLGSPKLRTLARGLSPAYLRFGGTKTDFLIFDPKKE
Put plainly: AGA*IA assay: heparanase-catalyzed fondaparinux cleavage, colorimetric (WST-1). The format is biochemical.

Assay [2] relates to genes encoding for proangiogenic factors. Put plainly: Real-Time Quantitative PCR in HT1080 cells, summary statement for all factors. The settings on record: 2.5 µM, result in words. It counts as cell-based, human. Here is the method: To evaluate the effect of heparanase inhibitors on the tumor transcription of genes encoding for proangiogenic factors, such as FGF1/2, VEGF, MMP-9, HSPE-1, the relative mRNA levels were analyzed by quantitative Real-Time Quantitative PCR.
To perform the assay, HT1080 (human fibrosarcoma) cells were cultured in complete medium containing 10%FCS (fetal calf serum). Cells were plated in 24-well plates and treated at fixed concentration (i.e., highest non-toxic concentration) of test compounds. After 24 h, cells were detached, collected and total RNA extracted by RNeasy Mini Kit (QIAGEN). Following reverse transcription step, FGF1/2, VEGF, MMP-9, HSPE-1 mRNA levels, were quantified by qPCR using the advanced Universal SYBR Green Supermix (Bio Rad) and ABI PRISM 7900HT Thermal Cycler System (Perkin Elmer), according to the manufacturer's instructions. Appropriate no-RT and non-template controls were included in each 96-well PCR reaction, and dissociation analysis was performed at the end of each run to confirm the specificity of the reaction. Relative levels of RNA were calculated using the ddCt method. Standard curve and sample data were run in duplicate. In Table 4 a mean value is reported. […]

Where two headings read alike, the source gives them in different places.

Consider `Cn1cc(NC(=O)c2ccc(Oc3ccc(C(=O)Nc4cc(C(=O)Nc5cccc(CC(=O)N[C@@H](Cc6ccccc6)C(=O)O)c5)n(C)c4)cc3)cc2)cc1C(=O)Nc1cccc(CC(=O)N[C@@H](Cc2ccccc2)C(=O)O)c1` [Compound 36e, (2S,2'S)-2,2'-((2,2'-(((4,4'-((4,4'-Oxybis(benzoyl))bis(azanediyl))bis(1-methyl-1H-pyrrole-2,2'-carbonyl))bis(azanediyl))bis(3,1-phenylene))bis(acetyl))bis(azanediyl))bis(3-phenylpropanoic acid)], for which the IC50 was < 500 nM in assay [1] (AGA*IA screening, read-out: anti-heparanase activity); 50 to 490 nM in assay [1] (Table 1, range activity classes, AGA*IA test on Fondaparinux, read-out: AGAIA assay IC50); 50 to 490 nM in assay [1] (Table 2, classes as in Table 1, read-out: AGA*IA assay). For the same compound, the “inhibition of genes expression encoding for proangiogenic factors” value in assay [2] is recorded as “significant inhibition”.
